This is an account of results in ChEMBL document CHEMBL4219210, “Discovery and biological evaluation of novel pyrazolopyridine derivatives as potent and orally available PI3Kδ inhibitors” (Bioorg Med Chem, 2018).

The target of series [1] is PI3-kinase p110-delta/p85-alpha (Homo sapiens, UniProt O00329). The experiment in a line: Inhibition of recombinant human full length N-terminal His6-tagged PI3K p110delta/untagged recombinant full length human p85alpha expressed in baculovirus infected Sf21 insect cells using PIP2 as substrate after 35 to 40 mins by HTRF assay. On the technique in general: In TR-FRET formats the signal depends on donor and acceptor labels being close together.

Series [2] can be described thus: Stability in BALB/c mouse plasma assessed as parent compound remaining at 2 uM after 16 hrs in absence of NaF by LC-MS/MS analysis. The series is classed as ADME, cell-free. Conditions: read-out: Stability.
The species entered for series [3] is Homo sapiens. The experiment in a line: Selectivity ratio of IC50 for recombinant human N-terminal His6-tagged full length PI3K p110alpha/untagged recombinant full length human p85alpha to IC50 for recombinant human full length N-terminal His6-tagged PI3K p110delta/untagged recombinant full length human p85alpha expressed in baculovirus infected Sf21 insect cells.

Series [4] can be described thus: Stability in BALB/c mouse plasma assessed as parent compound remaining at 2 uM after 16 hrs in presence of NaF by LC-MS/MS analysis. Particulars: read-out: Stability. The series is classed as ADME, cell-free.
A short description of series [5]: Tmax in BALB/c mouse plasma at 1 mg/kg, iv followed by po dosing at 3 mg/kg by LC-MS/MS analysis. It is filed as ADME, organism-based.
A short description of series [6]: Volume of distribution at steady state in BALB/c mouse plasma at 1 mg/kg, iv followed by po dosing at 3 mg/kg by LC-MS/MS analysis. It is filed as ADME, organism-based. Conditions: read-out: Vdss.
The nature of series [7]: Cmax in BALB/c mouse plasma at 1 mg/kg, iv followed by po dosing at 3 mg/kg by LC-MS/MS analysis. It is filed as ADME, organism-based.
A short description of series [8]: Total clearance in BALB/c mouse plasma at 1 mg/kg, iv followed by po dosing at 3 mg/kg by LC-MS/MS analysis. It is filed as ADME, organism-based.
The nature of series [9]: Half life in BALB/c mouse plasma at 1 mg/kg, iv followed by po dosing at 3 mg/kg by LC-MS/MS analysis. It is filed as ADME, organism-based.
Series [10] is described as follows: Oral bioavailability in BALB/c mouse plasma at 3 mg/kg by LC-MS/MS analysis. The series is classed as ADME, organism-based.
Series [11] can be described thus: AUC in BALB/c mouse plasma at 3 mg/kg, po by LC-MS/MS analysis. It is filed as ADME, organism-based.
Series [12] has as its target PI3-kinase p110-alpha/p85-alpha (Homo sapiens, UniProt P42336). In words: Inhibition of recombinant human N-terminal His6-tagged full length PI3K p110alpha/untagged recombinant full length human p85alpha expressed in baculovirus infected Sf21 insect cells using phosphatidylinositol as substrate after 3 hrs by kinase glo reagent based luminescence assay.
Series [13] addresses PI3K p110 beta/p85 alpha (Homo sapiens, UniProt P42338). In words: Inhibition of recombinant human full length N-terminal His6-tagged PI3K p110beta/untagged recombinant full length human p85alpha expressed in baculovirus infected Sf21 insect cells using PIP2 as substrate after 35 to 40 mins by HTRF assay.
In series [14] the target is Phosphatidylinositol 4,5-bisphosphate 3-kinase catalytic subunit gamma isoform (Homo sapiens, UniProt P48736). In words: Inhibition of recombinant human full length N-terminal His-tagged PI3Kgamma expressed in Sf9 insect cells using PIP2 as substrate after 35 to 40 mins by HTRF assay.

Each structure is given as a SMILES string.

Sequence of PI3-kinase p110-delta/p85-alpha (P27986 whole entry): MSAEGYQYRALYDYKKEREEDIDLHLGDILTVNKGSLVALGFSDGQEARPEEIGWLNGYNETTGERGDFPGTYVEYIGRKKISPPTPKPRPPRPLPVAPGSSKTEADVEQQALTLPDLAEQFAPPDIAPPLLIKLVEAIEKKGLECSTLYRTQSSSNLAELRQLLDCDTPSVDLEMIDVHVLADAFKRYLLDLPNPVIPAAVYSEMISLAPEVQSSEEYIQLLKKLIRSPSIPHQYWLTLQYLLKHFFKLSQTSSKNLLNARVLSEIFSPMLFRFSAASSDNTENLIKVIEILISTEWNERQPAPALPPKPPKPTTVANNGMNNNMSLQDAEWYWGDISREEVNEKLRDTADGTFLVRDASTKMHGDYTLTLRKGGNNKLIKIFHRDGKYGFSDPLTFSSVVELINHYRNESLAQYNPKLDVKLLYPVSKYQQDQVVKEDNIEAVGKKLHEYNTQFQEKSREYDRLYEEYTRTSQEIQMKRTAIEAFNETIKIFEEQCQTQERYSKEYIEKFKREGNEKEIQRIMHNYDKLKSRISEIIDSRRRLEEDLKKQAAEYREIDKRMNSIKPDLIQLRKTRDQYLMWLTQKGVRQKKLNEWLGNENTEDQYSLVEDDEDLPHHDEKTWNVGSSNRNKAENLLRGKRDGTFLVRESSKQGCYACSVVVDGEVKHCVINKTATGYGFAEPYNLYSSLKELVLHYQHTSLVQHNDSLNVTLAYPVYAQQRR
Sequence of PI3-kinase p110-delta/p85-alpha (O00329 whole entry): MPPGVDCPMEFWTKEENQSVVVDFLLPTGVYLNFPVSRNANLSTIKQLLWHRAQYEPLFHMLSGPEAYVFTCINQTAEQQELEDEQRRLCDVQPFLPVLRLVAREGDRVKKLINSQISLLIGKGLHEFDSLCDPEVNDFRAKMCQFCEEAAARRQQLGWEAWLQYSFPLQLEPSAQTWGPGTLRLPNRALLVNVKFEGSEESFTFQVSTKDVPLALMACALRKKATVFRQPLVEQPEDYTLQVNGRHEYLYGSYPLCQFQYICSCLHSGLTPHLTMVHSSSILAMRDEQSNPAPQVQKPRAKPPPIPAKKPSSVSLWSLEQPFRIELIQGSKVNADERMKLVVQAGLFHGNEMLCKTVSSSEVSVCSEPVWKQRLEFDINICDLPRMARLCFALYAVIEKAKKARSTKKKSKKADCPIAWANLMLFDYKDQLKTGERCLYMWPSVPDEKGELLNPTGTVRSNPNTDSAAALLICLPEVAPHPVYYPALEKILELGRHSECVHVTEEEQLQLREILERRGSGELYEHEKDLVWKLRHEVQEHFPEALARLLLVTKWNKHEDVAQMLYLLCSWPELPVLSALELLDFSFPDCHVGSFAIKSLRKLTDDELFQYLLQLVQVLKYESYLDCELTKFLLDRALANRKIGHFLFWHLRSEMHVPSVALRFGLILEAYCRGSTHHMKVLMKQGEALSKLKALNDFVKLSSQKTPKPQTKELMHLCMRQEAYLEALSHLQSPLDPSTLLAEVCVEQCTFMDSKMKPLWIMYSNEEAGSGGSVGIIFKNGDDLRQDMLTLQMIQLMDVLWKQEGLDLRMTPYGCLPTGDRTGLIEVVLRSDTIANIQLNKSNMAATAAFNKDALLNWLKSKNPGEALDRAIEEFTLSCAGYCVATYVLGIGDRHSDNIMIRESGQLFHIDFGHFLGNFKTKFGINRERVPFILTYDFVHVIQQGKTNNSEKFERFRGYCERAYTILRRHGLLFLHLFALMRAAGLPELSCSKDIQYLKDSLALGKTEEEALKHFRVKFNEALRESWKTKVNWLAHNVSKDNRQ
Sequence of PI3K p110 beta/p85 alpha (P27986 whole entry, canonical isoform): as the sequence (P27986 whole entry) above
Sequence of PI3K p110 beta/p85 alpha (P42338 whole entry, canonical isoform): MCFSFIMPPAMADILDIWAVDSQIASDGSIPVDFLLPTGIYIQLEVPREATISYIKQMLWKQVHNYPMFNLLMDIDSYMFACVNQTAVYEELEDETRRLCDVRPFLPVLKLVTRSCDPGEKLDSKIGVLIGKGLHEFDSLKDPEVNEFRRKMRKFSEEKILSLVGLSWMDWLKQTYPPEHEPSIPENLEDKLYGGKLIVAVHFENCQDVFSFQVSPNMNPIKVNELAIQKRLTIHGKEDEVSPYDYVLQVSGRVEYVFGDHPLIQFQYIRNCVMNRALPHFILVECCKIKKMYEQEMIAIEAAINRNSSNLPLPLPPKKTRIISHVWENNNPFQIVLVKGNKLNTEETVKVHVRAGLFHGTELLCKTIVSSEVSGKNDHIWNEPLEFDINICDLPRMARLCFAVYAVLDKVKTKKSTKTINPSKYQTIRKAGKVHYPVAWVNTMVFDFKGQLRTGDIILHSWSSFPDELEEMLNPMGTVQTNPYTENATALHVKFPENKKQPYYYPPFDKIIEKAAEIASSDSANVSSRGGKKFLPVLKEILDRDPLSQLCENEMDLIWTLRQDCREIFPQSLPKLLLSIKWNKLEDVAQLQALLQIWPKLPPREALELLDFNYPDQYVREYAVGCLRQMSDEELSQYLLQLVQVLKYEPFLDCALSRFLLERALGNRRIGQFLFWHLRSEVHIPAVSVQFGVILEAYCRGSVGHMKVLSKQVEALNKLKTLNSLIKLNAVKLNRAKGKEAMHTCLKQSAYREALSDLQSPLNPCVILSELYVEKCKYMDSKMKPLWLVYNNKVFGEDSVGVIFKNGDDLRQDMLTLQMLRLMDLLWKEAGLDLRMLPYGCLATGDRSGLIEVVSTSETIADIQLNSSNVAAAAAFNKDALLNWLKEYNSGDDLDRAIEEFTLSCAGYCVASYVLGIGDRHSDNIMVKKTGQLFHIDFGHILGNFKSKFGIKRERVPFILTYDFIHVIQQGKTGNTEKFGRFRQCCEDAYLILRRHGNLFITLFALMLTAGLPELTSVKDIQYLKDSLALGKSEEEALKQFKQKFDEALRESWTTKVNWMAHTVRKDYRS
Sequence of PI3-kinase p110-alpha/p85-alpha (P27986 whole entry): as the sequence (P27986 whole entry) above
Sequence of PI3-kinase p110-alpha/p85-alpha (P42336 whole entry): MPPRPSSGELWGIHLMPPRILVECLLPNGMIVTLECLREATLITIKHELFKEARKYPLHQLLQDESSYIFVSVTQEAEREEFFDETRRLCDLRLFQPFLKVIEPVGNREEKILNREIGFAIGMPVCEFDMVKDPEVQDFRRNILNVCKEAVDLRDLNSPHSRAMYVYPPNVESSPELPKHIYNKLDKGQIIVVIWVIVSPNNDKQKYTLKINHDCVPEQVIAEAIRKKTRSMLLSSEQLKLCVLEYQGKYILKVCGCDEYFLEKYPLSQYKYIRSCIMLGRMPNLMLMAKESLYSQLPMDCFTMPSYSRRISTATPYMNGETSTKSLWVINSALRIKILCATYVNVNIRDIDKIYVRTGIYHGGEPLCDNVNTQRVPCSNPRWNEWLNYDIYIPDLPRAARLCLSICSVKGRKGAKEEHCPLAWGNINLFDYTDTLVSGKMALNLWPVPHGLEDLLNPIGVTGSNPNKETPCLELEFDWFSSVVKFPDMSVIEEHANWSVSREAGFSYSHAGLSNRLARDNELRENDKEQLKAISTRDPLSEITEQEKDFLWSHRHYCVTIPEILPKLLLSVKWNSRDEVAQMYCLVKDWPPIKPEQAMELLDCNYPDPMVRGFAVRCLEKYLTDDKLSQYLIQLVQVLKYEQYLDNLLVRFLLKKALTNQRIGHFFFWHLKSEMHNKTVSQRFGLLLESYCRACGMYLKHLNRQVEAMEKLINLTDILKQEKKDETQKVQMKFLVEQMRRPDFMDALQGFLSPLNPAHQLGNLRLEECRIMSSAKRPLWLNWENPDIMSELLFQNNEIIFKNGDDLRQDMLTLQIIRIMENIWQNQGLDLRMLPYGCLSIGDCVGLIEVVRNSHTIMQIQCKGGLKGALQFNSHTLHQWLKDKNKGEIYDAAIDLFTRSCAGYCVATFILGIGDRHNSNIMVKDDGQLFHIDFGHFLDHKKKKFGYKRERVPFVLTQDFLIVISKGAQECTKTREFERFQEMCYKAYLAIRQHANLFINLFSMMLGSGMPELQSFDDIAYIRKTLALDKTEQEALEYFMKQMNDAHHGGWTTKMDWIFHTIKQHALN
Sequence of Phosphatidylinositol 4,5-bisphosphate 3-kinase catalytic subunit gamma isoform (P48736 whole entry, canonical isoform): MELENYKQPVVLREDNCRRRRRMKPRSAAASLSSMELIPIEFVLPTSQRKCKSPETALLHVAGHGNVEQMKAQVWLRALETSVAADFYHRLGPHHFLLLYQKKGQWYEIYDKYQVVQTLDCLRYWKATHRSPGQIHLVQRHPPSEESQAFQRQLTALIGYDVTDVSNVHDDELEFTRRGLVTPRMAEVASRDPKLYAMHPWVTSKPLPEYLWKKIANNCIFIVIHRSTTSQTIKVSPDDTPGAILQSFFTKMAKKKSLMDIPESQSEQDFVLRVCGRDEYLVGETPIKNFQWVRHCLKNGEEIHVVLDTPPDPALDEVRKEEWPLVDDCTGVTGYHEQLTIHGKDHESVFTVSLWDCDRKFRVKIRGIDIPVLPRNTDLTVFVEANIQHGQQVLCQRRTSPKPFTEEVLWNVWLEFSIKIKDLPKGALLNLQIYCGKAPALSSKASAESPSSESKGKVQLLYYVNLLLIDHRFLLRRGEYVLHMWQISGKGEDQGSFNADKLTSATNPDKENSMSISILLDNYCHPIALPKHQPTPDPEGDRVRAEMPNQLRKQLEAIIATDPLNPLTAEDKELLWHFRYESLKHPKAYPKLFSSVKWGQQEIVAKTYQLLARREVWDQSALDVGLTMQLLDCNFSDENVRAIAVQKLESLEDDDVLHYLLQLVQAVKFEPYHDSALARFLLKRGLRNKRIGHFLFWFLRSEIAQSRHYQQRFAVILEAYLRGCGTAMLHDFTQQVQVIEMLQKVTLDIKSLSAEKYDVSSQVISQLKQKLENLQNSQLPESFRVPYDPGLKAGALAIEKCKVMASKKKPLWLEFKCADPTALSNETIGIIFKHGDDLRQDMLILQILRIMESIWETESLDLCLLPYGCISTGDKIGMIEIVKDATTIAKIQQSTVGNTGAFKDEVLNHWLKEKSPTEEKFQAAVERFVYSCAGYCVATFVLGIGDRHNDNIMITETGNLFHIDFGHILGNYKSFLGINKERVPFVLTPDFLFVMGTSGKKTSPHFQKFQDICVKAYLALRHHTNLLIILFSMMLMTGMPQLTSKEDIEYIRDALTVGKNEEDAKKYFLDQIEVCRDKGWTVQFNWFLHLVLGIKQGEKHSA

Broadly, the IC50 is the midpoint of a concentration-inhibition curve. Turning to `COc1ncc(-c2cc(NC(=O)c3coc(CN4CCN(Cc5cccnc5)CC4)n3)c3cnn(C)c3n2)cc1NS(C)(=O)=O`, the concentration for half-maximal inhibition (IC50) in series [1] worked out at 0.75 nM. The remaining at 16 h, 2 µM in series [2] is 0.5%; in series [4] it was 90.3%. In series [3], the Ratio IC50 was determined as 290.

As to `COc1ncc(-c2cc(O[C@@H]3CCN(C4CCOCC4)C3)c3cnn(C)c3n2)cc1NS(C)(=O)=O`, the IC50 in series [1] came out at 52 nM. Also, the Ratio IC50 in series [3] is 21.

For the molecule `COc1ncc(-c2cc(N(C)[C@@H]3CCN(C(=O)C4CCOCC4)C3)c3cnn(C)c3n2)cc1NS(C)(=O)=O`, the IC50 in series [1] came to 230 nM.

The Tmax is the time at which the peak concentration occurs. As usually defined, the Cmax is the peak of the concentration-time curve. A word on the half-life: it is the time in which the quantity being followed falls by half. Broadly, the bioavailability is the share of a dose that reaches the circulation, judged against a reference dose that is usually intravenous. Read a high bioavailability as good availability. As a reminder, the AUC is the area under the concentration-time curve, a measure of exposure. A high value points to high exposure. As for `COc1ncc(-c2cc(O[C@@H]3CCN(C(=O)C4CCOCC4)C3)c3cnn(C)c3n2)cc1NS(C)(=O)=O`, in series [1], the IC50 turned out to be 5.3 nM. Besides, in series [5], the time to peak (Tmax) turned out to be 15 min. Moreover, the Vd in series [6] was found to be 2.37 L/kg. In addition, in [2], the remaining at 16 h, 2 µM came to 109%. The Ratio IC50 in series [3] worked out at 92. The concentration in series [7] peaked (Cmax) at 861 ng/mL. This molecule came in with a clearance in series [8] of 24.5 mL/min/kg. The molecule also had a half-life in series [9] of 151 min. Also, in series [10], the bioavailability is 71.1%. This molecule had an exposure (AUC) in series [11] of 1640 ng·h/mL.

`COc1ncc(-c2cc(O[C@H]3CCN(C(=O)C4CCOCC4)C3)c3cnn(C)c3n2)cc1NS(C)(=O)=O`: the 50% inhibitory concentration (IC50) in series [1] came to 53 nM. For the same molecule, the Ratio IC50 in series [3] worked out at 13.

Regarding `COc1ncc(-c2cc(O[C@@H]3CCN(C(=O)C4(C)CCOCC4)C3)c3cnn(C)c3n2)cc1NS(C)(=O)=O`, in series [1], the IC50 is 18 nM.

Regarding `COc1ncc(-c2cc(N[C@@H]3CCN(C(=O)C4CCOCC4)C3)c3cnn(C)c3n2)cc1NS(C)(=O)=O`, the IC50 in series [1] was found to be 110 nM. Further, the Ratio IC50 in series [3] stood at 3.2.

`COc1ncc(-c2cc(O[C@@H]3CCN(Cc4cnn(C)c4)C3)c3cnn(C)c3n2)cc1NS(C)(=O)=O`: the IC50 in series [1] is 8.2 nM. Besides, in series [3], the Ratio IC50 was 71.

Turning to `COc1ncc(-c2cc(O[C@@H]3CCN(C(=O)c4ccccc4)C3)c3cnn(C)c3n2)cc1NS(C)(=O)=O`, the half-maximal inhibitory concentration (IC50) in [1] stood at 16 nM. In [3], the Ratio IC50 turned out to be 5.3.

For `COc1ncc(-c2cc(O[C@@H]3CCN(Cc4ccccc4)C3)c3cnn(C)c3n2)cc1NS(C)(=O)=O`, in series [1], the IC50 is 4.5 nM. For the same molecule, the Ratio IC50 in series [3] was determined as 160.

As to `COc1ncc(-c2cc(NC(=O)c3coc(CN4CCN(CCN5CCOCC5)CC4)n3)c3cnn(C)c3n2)cc1NS(C)(=O)=O`, in [1], the concentration for half-maximal inhibition (IC50) stood at 3.3 nM. The remaining at 16 h, 2 µM worked out at 17.6% in series [2] and 92.3% in [4]. For the same molecule, the Ratio IC50 in series [3] is 250.

Take `COc1ncc(-c2cc(O[C@@H]3CCN(S(=O)(=O)C4CCOCC4)C3)c3cnn(C)c3n2)cc1NS(C)(=O)=O`: the IC50 in [1] worked out at 38 nM. For the same molecule, the Ratio IC50 in series [3] is 2.

On to `COc1ncc(-c2cc(O[C@@H]3CCN(C(=O)CC4CCOCC4)C3)c3cnn(C)c3n2)cc1NS(C)(=O)=O`, for which, in series [1], the half-inhibitory concentration (IC50) was 36 nM. Besides, the Ratio IC50 in [3] stood at 17.

Consider `COc1ncc(-c2cc(NC(=O)c3coc(CN4CCN(C(C)C)CC4)n3)c3cnn(C)c3n2)cc1NS(C)(=O)=O`, for which the results for the half-inhibitory concentration (IC50) in series [12] and in series [1] were 330 nM and 8.4 nM, respectively. In addition, in series [5], the time of peak concentration (Tmax) is 120 min. In [6], the Vd was determined as 4.03 L/kg. For the same molecule, the remaining at 16 h, 2 µM in series [2] amounted to 0.4%; in series [4], 79.7%. Also, in series [3], the Ratio IC50 worked out at 40. Besides, the highest concentration (Cmax) in series [7] turned out to be 19.9 ng/mL. The molecule further gave a clearance in series [8] of 170 mL/min/kg. The molecule further gave a half-life in series [9] of 22 min. The bioavailability in [10] is 16%. This molecule also had an AUC in [11] of 45.6 ng·h/mL.

As to `COc1ncc(-c2cc(O[C@@H]3CCN(CC4CCOCC4)C3)c3cnn(C)c3n2)cc1NS(C)(=O)=O`, the IC50 in series [1] came to 18 nM. Besides, in [3], the Ratio IC50 is 29.

As for `COc1ncc(-c2cc(O[C@@H]3CCN(Cc4c(C)nn(C)c4C)C3)c3cnn(C)c3n2)cc1NS(C)(=O)=O`, the IC50 in series [13] was 520 nM; in series [1], 4.5 nM; in series [14] it was more than 10000 nM. Besides, the Tmax in series [5] is 15 min. Further, the Vd in [6] was determined as 2.82 L/kg. For the same molecule, the Ratio IC50 in series [3] came to 320. This molecule also returned a Cmax in series [7] of 298 ng/mL. The molecule also gave a clearance in series [8] of 68.3 mL/min/kg. The half-life in series [9] is 84.6 min. In [10], this molecule displayed a bioavailability of 49%. Besides, in series [11], the area under the curve (AUC) is 346 ng·h/mL.
